Tests used:
[1] = target: T1, LacS (Saccharolobus solfataricus, UniProt P22498); assay: inhibition of oNPG hydrolysis, A420; type: biochemical; parameters: recombinant full-length LacS; purified for in vitro assay; lacS also integrated in E. coli BW25113 (BWLacS); conditions: buffer Z, oNPG substrate, 37°C, 10 min
T1 sequence (P22498 1-489): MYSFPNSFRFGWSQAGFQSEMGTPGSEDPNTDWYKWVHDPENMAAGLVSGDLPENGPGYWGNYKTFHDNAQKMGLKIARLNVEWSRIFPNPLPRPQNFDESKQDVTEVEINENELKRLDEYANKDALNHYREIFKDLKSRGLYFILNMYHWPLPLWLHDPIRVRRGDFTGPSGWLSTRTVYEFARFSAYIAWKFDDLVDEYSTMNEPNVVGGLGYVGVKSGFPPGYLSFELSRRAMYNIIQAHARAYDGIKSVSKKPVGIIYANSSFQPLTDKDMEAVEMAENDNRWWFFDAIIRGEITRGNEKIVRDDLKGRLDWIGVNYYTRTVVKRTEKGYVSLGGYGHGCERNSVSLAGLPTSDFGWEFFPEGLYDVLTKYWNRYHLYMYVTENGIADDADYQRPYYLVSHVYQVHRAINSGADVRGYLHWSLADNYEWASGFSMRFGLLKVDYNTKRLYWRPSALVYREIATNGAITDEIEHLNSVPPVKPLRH

[2] = target: T1, LacS; assay: blue-white colony assay on LB agar, E. coli BWLacS; type: cell-based; parameters: lacS also integrated in E. coli BW25113 (BWLacS); conditions: 40 μg/mL X-GAL, 1 mM L-arabinose

OC[C@H]1NC[C@H](O)[C@@H](O)[C@@H]1O [1-DNJ]
LacS inhibition rate [1]: 1-DNJ was found able to inhibit LacS on its o-nitrophenyl-β-D-galactopyranoside (oNPG) hydrolysis activity

OC[C@H]1NC(O)[C@@H](O)[C@@H](O)[C@@H]1O (stereo partly drawn) [MJ]
LacS inhibition rate ([1]; unstable MJ tested as reaction mixture of purified GutB1 with ADM and NAD+, not isolated): MJ was also found to inhibit the activity of LacS (Figure S3)

OC[C@H]1O[C@@H](Oc2c[nH]c3ccc(Br)c(Cl)c23)[C@H](O)[C@@H](O)[C@H]1O [X-GAL]
blue-white colony assay on LB agar, E. coli BWLacS [2]: inhibitory effect of 1-DNJ on the LacS activity toward 5-bromo-4-chloro-3-indolyl β-D-galactopyranoside (X-GAL)

From PMC4338435, “Design and Application of a Novel High-throughput Screening Technique for 1-Deoxynojirimycin” (Scientific Reports, 2015)
